The record followed here is patent US9783510B2, “Small molecule mediated transcriptional induction of E-cadherin” (Vanderbilt University, priority 2014, dated 2017).

Experiment [1] deals with E-cadherin, H3K9Ac, H3K4me3, H3K27me3, H3K4me2 in SW620inv cells. The experiment in a line: Western blot time course of E-cadherin and histone H3 marks, SW620inv cells. The experiment is classed as cell-based. For orientation: Immunoblotting shows a protein as a band on a membrane.
The test system of the next experiment is HMEC-1 cells. Description: E-cadherin, VE-cadherin, Vimentin and histone marks in HMEC-1 cells (qPCR, Western blot). The experiment is classed as cell-based, human. As to conditions: after 48 hours of treatment. In general terms: In qPCR the cycle at which signal appears reflects the starting amount.
For another experiment, the system named is cyclin D1 protein. Description: Cyclin D1 protein by ICW (control for cycloheximide). The experiment is classed as cell-based. The note with it: within the 7 hour experimental interval. As to the method: Compound 13 increased the mRNA levels of E-cadherin specific mRNA by 27-fold in SW620inv cells (FIG. 3B) and by 20-fold in H520 cells (FIG. 3C) by 6 hours post-treatment. […] Whether de novo protein synthesis was required for the effect of Compound 13 on E-cadherin mRNA expression was determined. For these experiments, cells were treated with cycloheximide prior to application of Compound 13 and the expression of E-cadherin mRNA was evaluated 6 hours post-treatment for best sensitivity. The levels of cyclin D1 protein, known to have a very short half-life of ˜20 minutes (Diehl, J. A., et al. (1998) Genes & Development 12, 3499-3511), were analyzed as a positive control for the effectiveness of cycloheximide (CHX) treatment.
Referring to FIG. 4B and FIG. 4C, quantification of cyclin D1 protein by ICW, as described above, and under similar conditions as in (4A) at 6 h post-treatment with or without cyclohexamide.

As for `CC(/C=C/C(=O)NO)=C\[C@@H](C)C(=O)c1ccc(N(C)C)cc1` [TSA, trichostatin A], the “modification of the repressive marker H3K27me3” value in experiment [1] is recorded as “Less overall modification”. The “time of peak of H3K9Ac and H3K4me3 levels” value in experiment [1] (0.33 μM TSA) was 6 h. Moreover, the “time at which increase in H3K9Ac and H3K4me3 levels is first observed” value in experiment [1] (10 μM Compound 13, 0.33 μM TSA) is 1 h. Further, in the experiment with HMEC-1 cells, the “restoring E-cadherin in HMEC-1 cells” value is on record as “neither TSA nor 5-Aza, nor the combination of these two agents, was effective”.

Take `C[C@@H]1C[C@@H]([C@H](O)CC2CC(=O)NC(=O)C2)C(=O)[C@@H](C)C1` [cycloheximide]: in the experiment with cyclin D1 protein, the “cyclin D1 levels” value is “markedly reduced” and the β-actin protein levels entry is “not significantly altered”.
